Key:
Type in all cases: in vivo
[1] = test system: Bactrocera oleae (olive fly); assay: Uptake of alkylated porphyrins by flies fed porphyrin-containing bait; settings: B. oleae
Procedure: (§1) Porphyrins: • a) meso[tri(N-methyl-pyridyl), mono(N-dodecyl-pyridyl)]porphine (abbr.: C12) • b) meso[tri(N-methyl-pyridyl), mono(N-tetradecyl-pyridyl)]porphine (abbr.: C14) • c) meso[tri(N-methyl-pyridyl), mono(N-octadecyl-pyridyl)]porphine (abbr.: C18) Bait: Aqueous solution containing 10% sucrose and 1% autolysed yeast Flies: • a) Ceratitis capitata (fruit fly) age: 1 week; weight: 5-6 mg • b) Bactrocera oleae (olive fly) age: 10 days; weight: 4-4.5 mg • c) Stomoxis calcitrans (stable fly) age: 10 days; weight: 12 mg Irradiation: • a) High pressure halogen lamp, equipped with infrared and UV filters, emission 360-850 nm, operated at intensities in the 760-2,000 μE s^−1m^−2 range • b) Sunlight, mid June at Padua latitude, average intensity of […] μE s^−1m^−2 with minimum and maximum values of 950 and, respectively, 1,380 μE s^−1m^−2
(§2) An appropriate number of flies (50 flies per each experiment) was caged in 115×55×70 mm Plexiglas cages with several holes (ø=0.5 mm) and starved for 36 h. Then, depending on the protocol to be adopted for each specific experiment, the flies were fed with the bait (10% sucrose and 1% autolysed yeast in neutral aqueous solution), which was either porphyrin-free or added with a predetermined concentration of the porphyrin. These flies were then used in the various experimental sessions.
(§3) At predetermined times, the flies were sacrificed by freezing; the dead flies were then homogenized with a Polytron in 10 ml of a 2% aqueous solution of sodium dodecylsulphate (SDS). The suspension was centrifuged for 10 min at 2,000 rpm, the pellet was discarded and known aliquots of the supernatant were diluted by means of a chloroform/methanol binary mixture (1/2, v/v). The porphyrin concentration was measured by reading the fluorescence emitted at wavelengths above 630 nm and interpolating the emission intensity with a calibration plot obtained with known amounts of the porphyrin. The results were expressed as nanomoles of porphyrin recovered per fly.

[2] = test system: Ceratitis capitata (fruit fly); assay: as above; settings: C. capitata
Procedure: as §1, §2, §3

[3] = test system: Stomoxis calcitrans (stable fly); assay: as above; settings: S. calcitrans
Procedure: as §1, §2, §3

[4] = test system: Bactrocera oleae (olive fly); assay: Release of alkylated porphyrin from flies after feeding with bait interrupted; settings: B. oleae, 1.25 μM porphyrin in the bait
Procedure: as §2, §3

[5] = test system: Ceratitis capitata (fruit fly); assay: as above; settings: C. capitata, 1.25 μM porphyrin in the bait
Procedure: as §2, §3

[6] = test system: Stomoxis calcitrans (stable fly); assay: as above; settings: S. calcitrans, 1.25 μM porphyrin in the bait
Procedure: as §2, §3

[7] = test system: Bactrocera oleae flies; assay: Insecticidal action in the dark: fly survival after porphyrin bait; settings: fed 24 h, survival 12 h after change to porphyrin-free bait
Procedure: (§4) These flies were then used in the various experimental sessions. […] The number of survivors was evaluated 12 h after switching from administration of a porphyrin-containing bait to a porphyrin-free bait. In none of the experiments was mortality or any apparent toxic effect observed in control flies (flies not fed with porphyrin, see survival at 0 μM porphyrin concentration).

[8] = test system: Stomoxis calcitrans flies; assay: as above; settings: fed 24 h, survival 12 h after change to porphyrin-free bait
Procedure: as §4

[9] = test system: Ceratitis capitata flies; assay: Photoinsecticidal action: fly survival after bait and visible light irradiation (artificial lamp); settings: for Survival (% of control untreated flies): survival 10 h after irradiation
Procedure: as §1
The irradiations were performed for 1 h, then the flies were kept in dim light for monitoring the survival. Control flies were irradiated under identical conditions after feeding with a porphyrin-free bait.
The irradiations were performed for 1 h at a fluence-rate of 1220 μE s^−1m^−2. The survival was evaluated 10 h after the end of irradiation. […] The porphyrins are abbreviated as following: HP: haematoporphyrin; C1: meso-tetra(N-methyl-pyridyl)porphine.
The survival was evaluated 10 h after the end of irradiation.
as §2, with “sessions. […]” for “sessions.”

[10] = test system: Ceratitis capitata flies; assay: Photoinsecticidal action: fly survival after bait and sunlight irradiation; settings: 3 μM in bait, 12 h after feeding, survival 1 h after irradiation
Procedure: as §1
The survival was evaluated 1 h after the end of irradiation.
as §2

[11] = exposure time to bait 3 h, porphyrin in bait 1.24 μM
[12] = exposure time to bait 12 h, porphyrin in bait 1.24 μM
[13] = exposure time to bait 24 h, porphyrin in bait 1.24 μM
[14] = porphyrin concentration in bait 0.75 (μmoles), feeding 24 h
[15] = porphyrin concentration in bait 1.25 (μmoles), feeding 24 h
[16] = porphyrin concentration in bait 2.10 (μmoles), feeding 24 h
[17] = porphyrin concentration in bait 3.50 (μmoles), feeding 24 h
[18] = porphyrin concentration in bait 6.00 (μmoles), feeding 24 h

For `CCCCCCCCCCCCCC[n+]1ccc(-c2c3nc(c(-c4cc[n+](C)cc4)c4ccc([nH]4)c(-c4cc[n+](C)cc4)c4nc(c(-c5cc[n+](C)cc5)c5ccc2[nH]5)C=C4)C=C3)cc1` [C14, meso[tri(N-methyl-pyridyl), mono(N-tetradecyl-pyridyl)]porphine], the “Recoveries (nmoles of porphyrin per fly)” value [1, 11] was 2.2 nmoles of porphyrin per fly, the “Recoveries (nmoles of porphyrin per fly)” value [1, 12] was 3.7 nmoles of porphyrin per fly and the “Recoveries (nmoles of porphyrin per fly)” value [1, 13] was 4.8 nmoles of porphyrin per fly. The “Recoveries (nmoles of porphyrin per fly)” value [1, 14] was 3.9 nmoles of porphyrin per fly, the “Recoveries (nmoles of porphyrin per fly)” value [1, 15] was 4.8 nmoles of porphyrin per fly and the “Recoveries (nmoles of porphyrin per fly)” value [1, 16] was 8.5 nmoles of porphyrin per fly. For the same compound, the “Recoveries (nmoles of porphyrin per fly)” value [1, 17] was 10.6 nmoles of porphyrin per fly, the “Recoveries (nmoles of porphyrin per fly)” value [1, 18] was 13.8 nmoles of porphyrin per fly and the “Recoveries (nmoles of porphyrin per fly)” value [2, 11] was 2.9 nmoles of porphyrin per fly. For the same compound, the “Recoveries (nmoles of porphyrin per fly)” value [2, 12] was 5.3 nmoles of porphyrin per fly, the “Recoveries (nmoles of porphyrin per fly)” value [2, 13] was 5.7 nmoles of porphyrin per fly and the “Recoveries (nmoles of porphyrin per fly)” value [2, 14] was 2.6 nmoles of porphyrin per fly. For the same compound, the “Recoveries (nmoles of porphyrin per fly)” value [2, 15] was 5.7 nmoles of porphyrin per fly, the “Recoveries (nmoles of porphyrin per fly)” value [2, 16] was 9.6 nmoles of porphyrin per fly and the “Recoveries (nmoles of porphyrin per fly)” value [2, 17] was 11.5 nmoles of porphyrin per fly. For the same compound, the “Recoveries (nmoles of porphyrin per fly)” value [2, 18] was 14.0 nmoles of porphyrin per fly, the “Recoveries (nmoles of porphyrin per fly)” value [3, 11] was 2.4 nmoles of porphyrin per fly and the “Recoveries (nmoles of porphyrin per fly)” value [3, 12] was 5.6 nmoles of porphyrin per fly. For the same compound, the “Recoveries (nmoles of porphyrin per fly)” value [3, 13] was 6.2 nmoles of porphyrin per fly, the “Recoveries (nmoles of porphyrin per fly)” value [3, 14] was 4.1 nmoles of porphyrin per fly and the “Recoveries (nmoles of porphyrin per fly)” value [3, 15] was 6.2 nmoles of porphyrin per fly. The “Recoveries (nmoles of porphyrin per fly)” value [3, 16] was 10.2 nmoles of porphyrin per fly, the “Recoveries (nmoles of porphyrin per fly)” value [3, 17] was 12.5 nmoles of porphyrin per fly and the “Recoveries (nmoles of porphyrin per fly)” value [3, 18] was 12.8 nmoles of porphyrin per fly. The “Recoveries (nmoles of porphyrin per fly), release” value ([4]; 12 h after feeding interrupted) was 3.2 nmoles of porphyrin per fly, the “Recoveries (nmoles of porphyrin per fly), release” value ([4]; 24 h after feeding interrupted) was 2.0 nmoles of porphyrin per fly and the “Recoveries (nmoles of porphyrin per fly), release” value ([4]; 48 h after feeding interrupted) was 0.6 nmoles of porphyrin per fly. The “Recoveries (nmoles of porphyrin per fly), release” value ([5]; 12 h after feeding interrupted) was 3.0 nmoles of porphyrin per fly, the “Recoveries (nmoles of porphyrin per fly), release” value ([5]; 24 h after feeding interrupted) was 1.8 nmoles of porphyrin per fly and the “Recoveries (nmoles of porphyrin per fly), release” value ([5]; 48 h after feeding interrupted) was 0.7 nmoles of porphyrin per fly. For the same compound, the “Recoveries (nmoles of porphyrin per fly), release” value ([6]; 12 h after feeding interrupted) was 4.3 nmoles of porphyrin per fly, the “Recoveries (nmoles of porphyrin per fly), release” value ([6]; 24 h after feeding interrupted) was 2.2 nmoles of porphyrin per fly and the “Recoveries (nmoles of porphyrin per fly), release” value ([6]; 48 h after feeding interrupted) was 0.8 nmoles of porphyrin per fly. For the same compound, the “Survival (% of control untreated flies)” value ([7]; 0.75 μM in bait) was 100 % of control untreated flies, the “Survival (% of control untreated flies)” value ([7]; 1.25 μM in bait) was 100 % of control untreated flies and the “Survival (% of control untreated flies)” value ([7]; 2.10 μM in bait) was 69 % of control untreated flies. The “Survival (% of control untreated flies)” value ([7]; 3.00 μM in bait) was 50 % of control untreated flies, the “Survival (% of control untreated flies)” value ([7]; 5.00 μM in bait) was 37 % of control untreated flies and the “Survival (% of control untreated flies)” value ([7]; 8.10 μM in bait) was 19 % of control untreated flies. For the same compound, the “Survival (% of control untreated flies)” value ([8]; 0.75 μM in bait) was 100 % of control untreated flies, the “Survival (% of control untreated flies)” value ([8]; 1.25 μM in bait) was 77 % of control untreated flies and the “Survival (% of control untreated flies)” value ([8]; 2.10 μM in bait) was 52 % of control untreated flies. The “Survival (% of control untreated flies)” value ([8]; 3.00 μM in bait) was 31 % of control untreated flies, the “Survival (% of control untreated flies)” value ([8]; 5.00 μM in bait) was 11 % of control untreated flies and the “Survival (% of control untreated flies)” value ([8]; 8.10 μM in bait) was 3 % of control untreated flies. For the same compound, the “Survival (% of control untreated flies)” value ([9]; 3 μM in bait 24 h, time interval feeding-irradiation 0 h, irradiation 1 h at 1220 μE s^−1m^−2) was 0 % of control untreated flies, the “Survival (% of control untreated flies)” value ([9]; 3 μM in bait 24 h, time interval feeding-irradiation 12 h, irradiation 1 h at 1220 μE s^−1m^−2) was 0 % of control untreated flies and the “Survival (% of control untreated flies)” value ([9]; 3 μM in bait 24 h, time interval feeding-irradiation 24 h, irradiation 1 h at 1220 μE s^−1m^−2) was 10 % of control untreated flies. For the same compound, the “Survival (% of control untreated flies)” value ([9]; 3 μM in bait 24 h, time interval feeding-irradiation 48 h, irradiation 1 h at 1220 μE s^−1m^−2) was 21 % of control untreated flies, the “Survival (% of control untreated flies)” value ([9]; 3 μM in bait, fluence-rate 760 μE s^−1m^−2, irradiated 24 h after feeding (title)) was 10 % of control untreated flies and the “Survival (% of control untreated flies)” value ([9]; 3 μM in bait, fluence-rate 1220 μE s^−1m^−2, irradiated 24 h after feeding (title)) was 0 % of control untreated flies. For the same compound, the “Survival (% of control untreated flies)” value ([9]; 3 μM in bait, fluence-rate 1500 μE s^−1m^−2, irradiated 24 h after feeding (title)) was 0 % of control untreated flies, the “Survival (% of control untreated flies)” value ([9]; 3 μM in bait, fluence-rate 2000 μE s^−1m^−2, irradiated 24 h after feeding (title)) was 0 % of control untreated flies and the “time by which essentially all flies died” value ([9]; after 1 h illumination with artificial light or sunlight) was no more than 45 min. The “photoinsecticidal action compared among alkylated porphyrins” value ([9]; irradiation with visible light or sunlight) was “most efficient insecticidal action”, the “Survival (% of control untreated flies)” value ([10]; sunlight (average 1150 μE s^−1m^−2) 15 min) was 21 % of control untreated flies and the “Survival (% of control untreated flies)” value ([10]; sunlight (average 1150 μE s^−1m^−2) 30 min) was 10 % of control untreated flies. For the same compound, the “Survival (% of control untreated flies)” value ([10]; sunlight (average 1150 μE s^−1m^−2) 45 min) was 0 % of control untreated flies and the “Survival (% of control untreated flies)” value ([10]; sunlight (average 1150 μE s^−1m^−2) 60 min) was 0 % of control untreated flies.
